Reference: patent US20250197354A1, “SOLID STATE FORMS OF LX9211 AND SALTS THEREOF” (TEVA PHARMACEUTICALS INTERNATIONAL GMBH, priority 2022, published 2025)
≈ marks a conversion by molar mass, not a printed value.

Key:
Assay type in all cases: physicochemical
[1] = Compression at a pressure of 1 ton, XRPD analysis; settings: hydraulic press, 2 minutes
Method: (§1) Sample after being powdered in a mortar and pestle is applied directly on a silicon plate holder. The X-ray powder diffraction pattern was measured with Philips X'Pert PRO X-ray powder diffractometer, equipped with Cu irradiation source=1.54184 Å (Ångström), X'Celerator (2.022° 2θ) detector. Scanning parameters: angle range: 3-40 deg., step size 0.0167, time per step 37 s, continuous scan.
A sample of LX9211 dihydrogen phosphate form SI was subjected to a pressure of 1 ton (Perkin Elmer Hydraulic Press, set to 1 tons).
A sample of LX9211 dihydrogen phosphate form S3 was subjected to a pressure of 1 ton (Perkin Elmer Hydraulic Press, set to 1 tons).
A sample of LX9211 camsylate form K1 was subjected to a pressure of 1 ton (Perkin Elmer Hydraulic Press, set to 1 tons).
A sample of LX9211 hemihydrogen phosphate form S5 was subjected to a pressure of 1 ton (Perkin Elmer Hydraulic Press, set to 1 tons).

[2] = Strong grinding and solvent drop grinding, XRPD analysis
Method: as §1
(§2) Samples of LX9211 dihydrogen phosphate form S1 were subjected to strong grinding and to solvent drop grinding in acetone, ethanol (96%), and 2-propanol). Grinding was carried out on the samples alone, or in the presence of the solvent. In these experiments, about 20 mg of the sample is placed in a mortar and ground with a pestle for 2 minutes. The solvent, when used, as added to the crystalline material before grinding, in a volume of 10 microliters. XRPD analysis performed on each of the samples after the grinding experiment, confirmed no change in the starting material (Table 4):
as §2, with “S3” for “S1”, “6):” for “4):”
as §2, with “camsylate” for “dihydrogen phosphate”, “K1” for “S1”, “8):” for “4):”
as §2, with “hemihydrogen” for “dihydrogen”, “S5” for “S1”, “10): […]” for “4):”

DVS water uptake = settings: at least up to 90% RH
[3] = Solubility in water and pH 4.5 buffer, HPLC; settings: 24 hours, 37±0.2° C.; for Solubility (mg/mL) pH 4.5: pH 4.5 buffer (USP)
Method: The solubilities of LX9211 dihydrogen phosphate forms S1 and S3 and LX9211 dihydrogen phosphate and urea, and LX9211 free base form A were determined in water and pH 4.5 buffer as follows:
About 80 mg of samples of the starting materials were weighed into 15 ml PP centrifuge tubes. 8 ml of appropriate buffer solution (pH 4.5 according to USP 35-NF 30 Buffer Solutions) or water was added. Tubes were stoppered and shaken at 160 rpm for 24 hours at 37±0.2° C. in an incubator shaker (Innova 4080, New Brunswick Scientific). Suspensions were filtered through 0.45 μm […] syringe filter (CHROMAFIL PTFE-45/25, Macherey-Nagel). Filtrates were sampled and concentration of the starting material was determined by HPLC according to corresponding standard.

[4] = 2-propanol 10 microliters, solvent drop grinding for 2 minutes
[5] = Acetone 10 microliters, solvent drop grinding for 2 minutes
[6] = Ethanol (96%) 10 microliters, solvent drop grinding for 2 minutes
[7] = No solvent, strong grinding in mortar for 2 minutes

SMILES	XRPD analysis after pressure [1]	XRPD analysis results after grinding [2, 4]	XRPD analysis results after grinding [2, 5]	XRPD analysis results after grinding [2, 6]	XRPD analysis results after grinding [2, 7]	hygroscopicity (DVS) (DVS water uptake)	water uptake (DVS) (DVS water uptake)	Solubility (mg/mL) pH 4.5 [3] [mg/mL]	Solubility (mg/mL) water [3] [mg/mL]
CC(C)C[C@](C)(N)COc1ccc(-c2ccnc(C(F)F)c2)nc1C(F)F [LX9211 camsylate form K1]	no polymorphic conversion	No polymorphic conversion	No polymorphic conversion	No polymorphic conversion	No polymorphic conversion	non-hygroscopic	less than 0.1%	–	–
CC(C)C[C@](C)(N)COc1ccc(-c2ccnc(C(F)F)c2)nc1C(F)F [LX9211 dihydrogen phosphate and urea form U1]	–	–	–	–	–	–	–	16.4	24.4
CC(C)C[C@](C)(N)COc1ccc(-c2ccnc(C(F)F)c2)nc1C(F)F [LX9211 dihydrogen phosphate form S1]	no polymorphic conversion	No polymorphic conversion	No polymorphic conversion	No polymorphic conversion	No polymorphic conversion	–	–	8.1	25.0

Further lines, results first:

XRPD analysis after pressure [1]	XRPD analysis results after grinding [2, 4]	XRPD analysis results after grinding [2, 5]	XRPD analysis results after grinding [2, 6]	XRPD analysis results after grinding [2, 7]	hygroscopicity (DVS) (DVS water uptake)	water uptake (DVS) (DVS water uptake)	Solubility (mg/mL) pH 4.5 [3] [mg/mL]	Solubility (mg/mL) water [3] [mg/mL]	SMILES
no polymorphic conversion	No polymorphic conversion	No polymorphic conversion	No polymorphic conversion	No polymorphic conversion	–	–	13.8	25.0	CC(C)C[C@](C)(N)COc1ccc(-c2ccnc(C(F)F)c2)nc1C(F)F [LX9211 dihydrogen phosphate form S3]
–	–	–	–	–	–	–	9.7	0.1 (≈ 259 µM)	CC(C)C[C@](C)(N)COc1ccc(-c2ccnc(C(F)F)c2)nc1C(F)F [LX9211 free base form A, (S)-1-((2′,6-bis(difluoromethyl)-[2,4′-bipyridin]-5-yl)oxy)-2,4-dimethylpentan-2-amine]
